Test results published in ChEMBL document CHEMBL3132769, “Fragment growing to retain or alter the selectivity of anchored kinase hinge-binding fragments” (Medchemcomm, 2014).

Experiments:
[1] = target: Ribosomal protein S6 kinase alpha-2 (Homo sapiens) (UniProt Q15349); experiment: Inhibition of human full length RSK3 expressed in baculovirus assessed as substrate phosphorylation using fluorescence-labelled peptides as substrate at 0.06 uM after 90 mins by microfluidic peptide phosphorylation assay
[2] = target: Tyrosine-protein kinase Lyn (Homo sapiens) (UniProt P07948); experiment: Inhibition of human full length LYN expressed in baculovirus assessed as substrate phosphorylation using fluorescence-labelled peptides as substrate at 420 uM after 90 mins by microfluidic peptide phosphorylation assay
[3] = target: Aurora kinase B (Homo sapiens) (UniProt Q96GD4); experiment: Inhibition of human full length AurB expressed in baculovirus assessed as substrate phosphorylation using fluorescence-labelled peptides as substrate at 420 uM after 90 mins by microfluidic peptide phosphorylation assay
[4] = target: Fibroblast growth factor receptor 2 (Homo sapiens) (UniProt P21802); experiment: Inhibition of human FGFR2 catalytic domain expressed in baculovirus assessed as substrate phosphorylation using fluorescence-labelled peptides as substrate at 0.2 uM after 90 mins by microfluidic peptide phosphorylation assay
[5] = target: Calcium/calmodulin-dependent protein kinase type II subunit beta (Homo sapiens) (UniProt Q13554); experiment: Inhibition of human CAMK2 beta catalytic domain expressed in baculovirus assessed as substrate phosphorylation using fluorescence-labelled peptides as substrate at 0.2 uM after 90 mins by microfluidic peptide phosphorylation assay
[6] = test system: Tyrosine-protein kinase ABL1 (Homo sapiens), P00519 [H396P]; experiment: Inhibition of human truncated ABL H396P mutant expressed in baculovirus assessed as substrate phosphorylation using fluorescence-labelled peptides as substrate at […] after 90 mins by microfluidic peptide phosphorylation assay
[7] = target: Receptor-type tyrosine-protein kinase FLT3 (Homo sapiens) (UniProt P36888); experiment: Inhibition of human FLT3 catalytic domain expressed in baculovirus assessed as substrate phosphorylation using fluorescence-labelled peptides as substrate at […] after 90 mins by microfluidic peptide phosphorylation assay
[8] = target: Protein kinase C theta type (Homo sapiens) (UniProt Q04759); experiment: Inhibition of human truncated PKC theta expressed in baculovirus assessed as substrate phosphorylation using fluorescence-labelled peptides as substrate at 0.1 uM after 90 mins by microfluidic peptide phosphorylation assay
[9] = target: T1, cGMP-dependent protein kinase 1 (Homo sapiens) (UniProt Q13976); conditions: 0.1 uM
T1 sequence (whole entry): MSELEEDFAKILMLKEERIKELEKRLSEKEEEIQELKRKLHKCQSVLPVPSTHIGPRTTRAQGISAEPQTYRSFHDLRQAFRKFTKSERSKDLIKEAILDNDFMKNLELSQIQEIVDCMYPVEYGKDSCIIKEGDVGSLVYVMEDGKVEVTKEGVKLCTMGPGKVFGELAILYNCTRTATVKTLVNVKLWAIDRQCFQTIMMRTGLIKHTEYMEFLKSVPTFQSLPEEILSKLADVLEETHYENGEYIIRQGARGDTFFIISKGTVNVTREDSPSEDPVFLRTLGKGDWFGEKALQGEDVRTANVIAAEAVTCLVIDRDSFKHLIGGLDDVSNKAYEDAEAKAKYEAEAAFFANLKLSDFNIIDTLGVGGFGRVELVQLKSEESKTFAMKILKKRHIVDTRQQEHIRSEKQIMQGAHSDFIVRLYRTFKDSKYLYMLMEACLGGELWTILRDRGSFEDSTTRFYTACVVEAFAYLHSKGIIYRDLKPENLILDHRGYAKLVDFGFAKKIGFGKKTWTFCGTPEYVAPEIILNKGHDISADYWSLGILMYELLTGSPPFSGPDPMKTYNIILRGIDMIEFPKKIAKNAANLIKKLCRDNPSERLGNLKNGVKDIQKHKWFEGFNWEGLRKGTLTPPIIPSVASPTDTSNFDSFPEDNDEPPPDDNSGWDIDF
Description: Inhibition of human full length PKG-1beta expressed in baculovirus assessed as substrate phosphorylation using fluorescence-labelled peptides as substrate at 0.1 uM after 90 mins by microfluidic peptide phosphorylation assay

[10] = target: Epidermal growth factor receptor (Homo sapiens) (UniProt P00533); experiment: Inhibition of human EGFR catalytic domain expressed in baculovirus assessed as substrate phosphorylation using fluorescence-labelled peptides as substrate at 9 uM after 90 mins by microfluidic peptide phosphorylation assay
[11] = target: Fibroblast growth factor receptor 4 (Homo sapiens) (UniProt P22455); experiment: Inhibition of human FGFR4 catalytic domain expressed in baculovirus assessed as substrate phosphorylation using fluorescence-labelled peptides as substrate at 9 uM after 90 mins by microfluidic peptide phosphorylation assay
[12] = target: T2, Testis-specific serine/threonine-protein kinase 2 (Homo sapiens) (UniProt Q96PF2); experiment: Inhibition of human full length TSSK2 expressed in baculovirus assessed as substrate phosphorylation using fluorescence-labelled peptides as substrate at 9 uM after 90 mins by microfluidic peptide phosphorylation assay
T2 sequence (whole entry): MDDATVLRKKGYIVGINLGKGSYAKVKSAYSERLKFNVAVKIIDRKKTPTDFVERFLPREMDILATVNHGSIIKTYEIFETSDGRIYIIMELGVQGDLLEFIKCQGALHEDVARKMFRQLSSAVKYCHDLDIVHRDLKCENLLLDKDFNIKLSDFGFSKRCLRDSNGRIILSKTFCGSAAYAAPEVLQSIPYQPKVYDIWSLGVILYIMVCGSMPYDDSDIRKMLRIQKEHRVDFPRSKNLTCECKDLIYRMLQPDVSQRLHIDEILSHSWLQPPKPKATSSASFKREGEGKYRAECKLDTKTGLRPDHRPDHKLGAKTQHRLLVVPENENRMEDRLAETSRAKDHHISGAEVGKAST

[13] = test system: Tyrosine-protein kinase ABL1 (Homo sapiens), P00519 [H396P]; experiment: Inhibition of human truncated ABL H396P mutant expressed in baculovirus assessed as substrate phosphorylation using fluorescence-labelled peptides as substrate at 9 uM after 90 mins by microfluidic peptide phosphorylation assay
[14] = target: Fibroblast growth factor receptor 1 (Homo sapiens) (UniProt P11362); experiment: Inhibition of human FGFR1 catalytic domain expressed in baculovirus assessed as substrate phosphorylation using fluorescence-labelled peptides as substrate at 70 uM after 90 mins by microfluidic peptide phosphorylation assay
[15] = target: RAC-alpha serine/threonine-protein kinase (Homo sapiens) (UniProt P31749); experiment: Inhibition of human AKT1 catalytic domain expressed in baculovirus assessed as substrate phosphorylation using fluorescence-labelled peptides as substrate at 95 uM after 90 mins by microfluidic peptide phosphorylation assay
[16] = target: Serine/threonine-protein kinase MARK1 (Homo sapiens) (UniProt Q9P0L2); experiment: Inhibition of human full length MARK1 expressed in baculovirus assessed as substrate phosphorylation using fluorescence-labelled peptides as substrate at 8 uM after 90 mins by microfluidic peptide phosphorylation assay
[17] = target: Serine/threonine-protein kinase Chk2 (Homo sapiens) (UniProt O96017); experiment: Inhibition of human full length CHK2 expressed in baculovirus assessed as substrate phosphorylation using fluorescence-labelled peptides as substrate at 1000 uM after 90 mins by microfluidic peptide phosphorylation assay
[18] = target: Fibroblast growth factor receptor 2 (Homo sapiens) (UniProt P21802); experiment: Inhibition of human FGFR2 catalytic domain expressed in baculovirus assessed as substrate phosphorylation using fluorescence-labelled peptides as substrate at 1000 uM after 90 mins by microfluidic peptide phosphorylation assay
[19] = target: T1, cGMP-dependent protein kinase 1 (Homo sapiens); experiment: Inhibition of human full length PKG-1beta expressed in baculovirus assessed as substrate phosphorylation using fluorescence-labelled peptides as substrate at 1000 uM after 90 mins by microfluidic peptide phosphorylation assay

Chain of Fibroblast growth factor receptor 2 (Homo sapiens) (P21802 22-821 limits assumed): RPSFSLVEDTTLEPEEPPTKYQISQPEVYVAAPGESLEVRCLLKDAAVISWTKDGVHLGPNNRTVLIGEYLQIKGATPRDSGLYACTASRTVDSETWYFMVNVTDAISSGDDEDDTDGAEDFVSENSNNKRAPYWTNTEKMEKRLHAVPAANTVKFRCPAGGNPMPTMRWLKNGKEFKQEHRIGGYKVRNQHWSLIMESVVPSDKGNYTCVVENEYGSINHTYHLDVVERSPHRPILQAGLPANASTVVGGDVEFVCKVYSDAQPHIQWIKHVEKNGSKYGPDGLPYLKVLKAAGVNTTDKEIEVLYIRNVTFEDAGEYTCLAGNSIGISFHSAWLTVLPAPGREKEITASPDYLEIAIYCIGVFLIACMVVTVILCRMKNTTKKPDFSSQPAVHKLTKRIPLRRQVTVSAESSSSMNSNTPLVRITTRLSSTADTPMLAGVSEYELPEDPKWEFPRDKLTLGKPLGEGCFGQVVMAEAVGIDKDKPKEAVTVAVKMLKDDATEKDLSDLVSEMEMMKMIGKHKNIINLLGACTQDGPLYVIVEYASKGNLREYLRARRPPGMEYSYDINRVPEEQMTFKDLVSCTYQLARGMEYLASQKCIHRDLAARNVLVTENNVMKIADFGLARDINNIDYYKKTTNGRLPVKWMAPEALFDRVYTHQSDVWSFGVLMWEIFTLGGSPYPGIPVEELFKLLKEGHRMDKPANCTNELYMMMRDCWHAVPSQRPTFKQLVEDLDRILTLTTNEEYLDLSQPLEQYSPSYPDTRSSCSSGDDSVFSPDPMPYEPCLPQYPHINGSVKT
Chain of Fibroblast growth factor receptor 1 (Homo sapiens) (P11362 22-822 limits assumed): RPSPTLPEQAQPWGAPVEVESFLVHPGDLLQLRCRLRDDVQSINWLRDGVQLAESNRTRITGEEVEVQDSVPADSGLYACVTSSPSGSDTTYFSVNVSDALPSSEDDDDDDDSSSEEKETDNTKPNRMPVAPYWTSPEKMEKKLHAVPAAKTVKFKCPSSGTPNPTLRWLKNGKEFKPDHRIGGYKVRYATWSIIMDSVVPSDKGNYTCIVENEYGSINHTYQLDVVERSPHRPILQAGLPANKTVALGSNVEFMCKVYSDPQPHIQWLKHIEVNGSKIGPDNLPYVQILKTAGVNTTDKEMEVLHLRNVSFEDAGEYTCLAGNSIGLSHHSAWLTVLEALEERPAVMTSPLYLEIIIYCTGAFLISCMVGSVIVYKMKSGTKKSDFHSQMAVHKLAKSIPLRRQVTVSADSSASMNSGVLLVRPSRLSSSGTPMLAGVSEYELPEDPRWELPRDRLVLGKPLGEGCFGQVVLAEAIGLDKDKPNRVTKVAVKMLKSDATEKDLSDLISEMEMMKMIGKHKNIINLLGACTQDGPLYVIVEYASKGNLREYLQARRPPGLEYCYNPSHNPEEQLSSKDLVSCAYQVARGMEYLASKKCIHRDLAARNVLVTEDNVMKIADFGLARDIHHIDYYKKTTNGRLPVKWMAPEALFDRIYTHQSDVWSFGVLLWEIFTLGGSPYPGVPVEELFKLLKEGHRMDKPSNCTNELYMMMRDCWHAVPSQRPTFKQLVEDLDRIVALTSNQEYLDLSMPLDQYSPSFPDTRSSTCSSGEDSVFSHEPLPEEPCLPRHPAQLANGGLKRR
Chain of Aurora kinase B (Homo sapiens) (Q96GD4 whole entry, the tested form may be a part): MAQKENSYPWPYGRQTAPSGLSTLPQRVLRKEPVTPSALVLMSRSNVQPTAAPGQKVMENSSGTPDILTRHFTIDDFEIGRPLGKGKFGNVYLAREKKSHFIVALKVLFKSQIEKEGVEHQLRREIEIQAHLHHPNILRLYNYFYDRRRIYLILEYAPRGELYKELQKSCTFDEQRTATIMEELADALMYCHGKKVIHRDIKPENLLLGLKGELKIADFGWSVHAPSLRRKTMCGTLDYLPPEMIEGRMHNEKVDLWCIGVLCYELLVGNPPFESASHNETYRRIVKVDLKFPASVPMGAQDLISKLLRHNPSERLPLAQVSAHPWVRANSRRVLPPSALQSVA
Chain of RAC-alpha serine/threonine-protein kinase (Homo sapiens) (P31749 whole entry, the tested form may be a part): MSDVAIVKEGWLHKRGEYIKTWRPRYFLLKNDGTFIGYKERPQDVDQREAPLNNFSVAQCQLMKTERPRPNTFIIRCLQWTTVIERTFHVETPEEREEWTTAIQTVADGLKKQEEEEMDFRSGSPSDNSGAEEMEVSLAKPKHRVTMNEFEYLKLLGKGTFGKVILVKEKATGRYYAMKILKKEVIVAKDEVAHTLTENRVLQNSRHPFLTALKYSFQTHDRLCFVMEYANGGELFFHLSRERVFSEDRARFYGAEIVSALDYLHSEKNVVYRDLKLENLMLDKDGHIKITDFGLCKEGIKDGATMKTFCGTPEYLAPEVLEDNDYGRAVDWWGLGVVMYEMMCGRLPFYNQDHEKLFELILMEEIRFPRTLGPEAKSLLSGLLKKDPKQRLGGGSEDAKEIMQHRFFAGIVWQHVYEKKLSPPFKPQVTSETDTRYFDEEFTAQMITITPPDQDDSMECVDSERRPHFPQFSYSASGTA
Chain of Fibroblast growth factor receptor 4 (Homo sapiens) (P22455 22-802 limits assumed): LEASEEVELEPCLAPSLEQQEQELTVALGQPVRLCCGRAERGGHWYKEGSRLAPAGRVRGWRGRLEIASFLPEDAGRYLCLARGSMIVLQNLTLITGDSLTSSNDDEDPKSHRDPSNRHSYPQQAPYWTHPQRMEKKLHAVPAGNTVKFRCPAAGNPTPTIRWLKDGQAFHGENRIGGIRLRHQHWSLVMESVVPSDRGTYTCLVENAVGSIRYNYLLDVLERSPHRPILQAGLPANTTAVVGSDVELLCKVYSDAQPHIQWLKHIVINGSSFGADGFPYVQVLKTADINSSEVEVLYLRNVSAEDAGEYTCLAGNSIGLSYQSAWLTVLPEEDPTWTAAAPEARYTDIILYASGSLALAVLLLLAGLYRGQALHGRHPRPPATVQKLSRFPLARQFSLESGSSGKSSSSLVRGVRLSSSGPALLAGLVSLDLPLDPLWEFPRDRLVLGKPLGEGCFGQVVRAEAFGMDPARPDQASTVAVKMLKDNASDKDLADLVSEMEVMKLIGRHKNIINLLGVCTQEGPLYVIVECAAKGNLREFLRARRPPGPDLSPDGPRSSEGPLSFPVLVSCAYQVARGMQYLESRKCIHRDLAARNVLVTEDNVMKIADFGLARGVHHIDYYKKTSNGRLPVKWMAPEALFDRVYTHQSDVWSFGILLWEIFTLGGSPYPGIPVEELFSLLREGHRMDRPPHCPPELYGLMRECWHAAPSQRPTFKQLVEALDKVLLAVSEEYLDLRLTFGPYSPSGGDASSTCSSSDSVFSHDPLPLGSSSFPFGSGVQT
Chain of Serine/threonine-protein kinase MARK1 (Homo sapiens) (Q9P0L2 whole entry, looked up): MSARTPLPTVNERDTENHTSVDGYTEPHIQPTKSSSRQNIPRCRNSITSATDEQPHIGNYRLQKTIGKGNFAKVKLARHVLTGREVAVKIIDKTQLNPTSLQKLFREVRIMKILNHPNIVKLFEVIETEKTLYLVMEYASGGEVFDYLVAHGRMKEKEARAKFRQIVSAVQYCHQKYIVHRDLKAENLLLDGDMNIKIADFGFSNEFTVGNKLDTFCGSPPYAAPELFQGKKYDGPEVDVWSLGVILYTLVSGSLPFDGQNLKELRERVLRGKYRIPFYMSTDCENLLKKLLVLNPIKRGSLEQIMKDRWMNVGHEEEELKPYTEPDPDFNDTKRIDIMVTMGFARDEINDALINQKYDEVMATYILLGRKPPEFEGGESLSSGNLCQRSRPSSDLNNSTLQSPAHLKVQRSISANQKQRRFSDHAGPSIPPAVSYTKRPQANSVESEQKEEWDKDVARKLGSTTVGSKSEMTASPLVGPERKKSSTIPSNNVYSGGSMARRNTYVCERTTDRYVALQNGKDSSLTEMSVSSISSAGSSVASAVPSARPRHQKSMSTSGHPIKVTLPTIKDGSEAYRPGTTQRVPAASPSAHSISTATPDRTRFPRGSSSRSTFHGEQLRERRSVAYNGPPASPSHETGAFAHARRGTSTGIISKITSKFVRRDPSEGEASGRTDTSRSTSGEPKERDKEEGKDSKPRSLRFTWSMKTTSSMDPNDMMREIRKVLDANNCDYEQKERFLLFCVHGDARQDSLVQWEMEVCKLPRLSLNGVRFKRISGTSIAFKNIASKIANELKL
Chain of Protein kinase C theta type (Homo sapiens) (Q04759 whole entry, looked up, the tested form may be a part): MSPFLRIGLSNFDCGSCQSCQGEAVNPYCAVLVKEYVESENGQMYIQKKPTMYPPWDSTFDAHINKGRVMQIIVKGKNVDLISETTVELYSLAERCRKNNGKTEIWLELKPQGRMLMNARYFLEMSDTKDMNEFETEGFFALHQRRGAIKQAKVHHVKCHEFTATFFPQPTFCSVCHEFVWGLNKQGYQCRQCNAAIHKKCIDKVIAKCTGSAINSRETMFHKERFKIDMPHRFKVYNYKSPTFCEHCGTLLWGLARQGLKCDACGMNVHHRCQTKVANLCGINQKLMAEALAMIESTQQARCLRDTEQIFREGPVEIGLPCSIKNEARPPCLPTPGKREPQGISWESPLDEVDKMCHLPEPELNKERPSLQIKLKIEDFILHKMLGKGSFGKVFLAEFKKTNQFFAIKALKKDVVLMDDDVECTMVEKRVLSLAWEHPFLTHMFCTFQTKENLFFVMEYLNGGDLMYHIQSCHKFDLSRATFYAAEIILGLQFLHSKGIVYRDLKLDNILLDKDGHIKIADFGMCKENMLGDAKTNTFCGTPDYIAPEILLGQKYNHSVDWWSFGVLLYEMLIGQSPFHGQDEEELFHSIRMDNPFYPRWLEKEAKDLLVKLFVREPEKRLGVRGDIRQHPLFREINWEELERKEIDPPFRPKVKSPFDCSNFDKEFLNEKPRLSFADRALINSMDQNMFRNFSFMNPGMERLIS

NC1(Cc2ccc(Cl)cc2)CCN(c2ncnc3[nH]ccc23)CC1 showed an inhibition [1] of 0%.

c1nc(N2CCOCC2)c2nc[nH]c2n1 was tested, and the inhibition [2] was 68% and the inhibition [3] was 96%.

In the case of Clc1ccc(C2(c3ccc(-c4ncnc5[nH]cnc45)cc3)CCNCC2)cc1, the inhibition [4] was 4% and the inhibition [5] was 11.5%.

Work on COC(=O)c1cnc(Nc2cnc(C#N)cn2)cc1NCC1CCNCC1 yielded an inhibition [6] of 1% and an inhibition [7] of 21%.

In the case of C[C@H](CN(C)C)Oc1nc(Nc2cc3cccc(Cl)c3cn2)cnc1C#N, the inhibition [8] was 5% and the inhibition [9] was 0%.

In the case of NCC1CN(c2ncnc3[nH]c4cnccc4c23)CCO1 (centres undefined), the inhibition [10] was 12%, the inhibition [11] was 0% and the inhibition [12] was 0%. The inhibition [13] was 16%.

CNCc1ccc(-c2ncnc3[nH]cnc23)cc1 gave an inhibition [14] of 43%.

Work on NCCc1ccc(-c2ncnc3[nH]cnc23)cc1 yielded an inhibition [15] of 81%.

In the case of NCC1CCN(c2ncnc3[nH]ccc23)CC1, the inhibition [16] was 74%.

Compound c1cnc2[nH]ccc2c1 has an inhibition [17] of 74%, an inhibition [18] of 62% and an inhibition [19] of 87%.
